Assay results from PubChem BioAssay AID1963848 (Molecular Pharmacology Branch, DTP, NCI, 2024).
pIC50: −log10 of the molar value.

Tested on: 379773-124-R-J2-PDC spheroid viability
Test: Anticancer human tumor 379773-124-R-J2-PDC patient-derived endometrial carcinoma cell line growth inhibition [POLQ]
Settings: spheroids with HUVEC and MSC; for pIC50: curve of first compound; for viability, T/C: stronger effect = lower value
In short: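 Patient-derived tumour cells were co-cultured with HUVEC and mesenchymal stem cells as multicellular spheroids at 37 °C. They were treated with POLQ inhibitors (novobiocin, ART-558, RP6685) alone or combined with other agents. Top concentrations were at or near clinical Cmax (otherwise 10 microM; SN-38 at 1 microM), decreasing in half-log steps.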

[1] = second compound 0.0316 µM, first compound 0.0316 µM
[2] = second compound 0.0316 µM, first compound 0.1 µM
[3] = second compound 0.0316 µM, first compound 0.316 µM
[4] = second compound 0.0316 µM, first compound 1 µM
[5] = second compound 0.0316 µM, first compound 3.16 µM
[6] = second compound 0.0316 µM, first compound 10 µM
[7] = second compound 0.1 µM, first compound 0.0316 µM
[8] = second compound 0.1 µM, first compound 0.1 µM
[9] = second compound 0.1 µM, first compound 0.316 µM
[10] = second compound 0.1 µM, first compound 1 µM
[11] = second compound 0.1 µM, first compound 3.16 µM
[12] = second compound 0.1 µM, first compound 10 µM
[13] = second compound 0.316 µM, first compound 0.0316 µM
[14] = second compound 0.316 µM, first compound 0.1 µM
[15] = second compound 0.316 µM, first compound 0.316 µM
[16] = second compound 0.316 µM, first compound 1 µM
[17] = second compound 0.316 µM, first compound 3.16 µM
[18] = second compound 0.316 µM, first compound 10 µM
[19] = second compound 1 µM, first compound 0.0316 µM
[20] = second compound 1 µM, first compound 0.1 µM
[21] = second compound 1 µM, first compound 0.316 µM
[22] = second compound 1 µM, first compound 1 µM
[23] = second compound 1 µM, first compound 3.16 µM
[24] = second compound 1 µM, first compound 10 µM
[25] = second compound 3.16 µM, first compound 0.0316 µM
[26] = second compound 3.16 µM, first compound 0.1 µM
[27] = second compound 3.16 µM, first compound 0.316 µM
[28] = second compound 3.16 µM, first compound 1 µM
[29] = second compound 3.16 µM, first compound 3.16 µM
[30] = second compound 3.16 µM, first compound 10 µM
[31] = second compound 10 µM, first compound 0.0316 µM
[32] = second compound 10 µM, first compound 0.1 µM
[33] = second compound 10 µM, first compound 0.316 µM
[34] = second compound 10 µM, first compound 1 µM
[35] = second compound 10 µM, first compound 3.16 µM
[36] = second compound 10 µM, first compound 10 µM
[37] = second compound 0.0316 µM, first compound 0.00316 µM
[38] = second compound 0.0316 µM, first compound 0.01 µM
[39] = second compound 0.1 µM, first compound 0.00316 µM
[40] = second compound 0.1 µM, first compound 0.01 µM
[41] = second compound 0.316 µM, first compound 0.00316 µM
[42] = second compound 0.316 µM, first compound 0.01 µM
[43] = second compound 1 µM, first compound 0.00316 µM
[44] = second compound 1 µM, first compound 0.01 µM
[45] = second compound 3.16 µM, first compound 0.00316 µM
[46] = second compound 3.16 µM, first compound 0.01 µM
[47] = second compound 10 µM, first compound 0.00316 µM
[48] = second compound 10 µM, first compound 0.01 µM
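Note: spheroids exposed to drugs for seven days before readout.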
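Throughout, for viability, T/C: percent viability relative to DMSO vehicle control taken as 100%.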

CC1COCCN1c1cc(-c2ccnn2C)c2ccnc(-c3ccn[nH]3)c2n1 (stereo not given) + Nc1ccc(C#CCN(C(=O)Cc2ncc(C(F)(F)F)cc2C(F)(F)F)c2ccc(F)cc2)nn1
pIC50 (second compound 0.0316 µM): 6.92
pIC50 (second compound 0.1 µM): 6.88
pIC50 (second compound 0.316 µM): 6.94
pIC50 (second compound 1 µM): 6.89
pIC50 (second compound 3.16 µM): 6.87
pIC50 (second compound 10 µM): 6.85
viability, T/C [1]: 89.5%
viability, T/C [2]: 56.8%
viability, T/C [3]: 13.7%
viability, T/C [4]: 11.4%
viability, T/C [5]: 12%
viability, T/C [6]: 6.24%
viability, T/C [7]: 89.5%
viability, T/C [8]: 61.2%
viability, T/C [9]: 15.6%
viability, T/C [10]: 11.1%
viability, T/C [11]: 12.2%
viability, T/C [12]: 8.99%
viability, T/C [13]: 90.6%
viability, T/C [14]: 54.3%
viability, T/C [15]: 16.2%
viability, T/C [16]: 11.5%
viability, T/C [17]: 12.7%
viability, T/C [18]: 7.88%
viability, T/C [19]: 93.2%
viability, T/C [20]: 60.6%
viability, T/C [21]: 13.9%
viability, T/C [22]: 9.22%
viability, T/C [23]: 12.6%
viability, T/C [24]: 9.58%
viability, T/C [25]: 91.4%
viability, T/C [26]: 62.9%
viability, T/C [27]: 13%
viability, T/C [28]: 10.6%
viability, T/C [29]: 10.9%
viability, T/C [30]: 7.43%
viability, T/C [31]: 80.1%
viability, T/C [32]: 64.2%
viability, T/C [33]: 17.7%
viability, T/C [34]: 8.24%
viability, T/C [35]: 12.3%
viability, T/C [36]: 8.65%

CCCS(=O)(=O)Nc1ccc(F)c(C(=O)c2c[nH]c3ncc(-c4ccc(Cl)cc4)cc23)c1F + Nc1ccc(C#CCN(C(=O)Cc2ncc(C(F)(F)F)cc2C(F)(F)F)c2ccc(F)cc2)nn1
pIC50 (second compound 0.0316 µM): < 5.00
pIC50 (second compound 0.1 µM): < 5.00
pIC50 (second compound 0.316 µM): < 5.00
pIC50 (second compound 1 µM): < 5.00
pIC50 (second compound 3.16 µM): < 5.00
pIC50 (second compound 10 µM): < 5.00
viability, T/C [1]: 85.6%
viability, T/C [2]: 97.3%
viability, T/C [3]: 83.9%
viability, T/C [4]: 92%
viability, T/C [5]: 80.9%
viability, T/C [6]: 55.1%
viability, T/C [7]: 95.3%
viability, T/C [8]: 88.7%
viability, T/C [9]: 87.2%
viability, T/C [10]: 85.7%
viability, T/C [11]: 81.4%
viability, T/C [12]: 55%
viability, T/C [13]: 94.6%
viability, T/C [14]: 95.8%
viability, T/C [15]: 81%
viability, T/C [16]: 94.6%
viability, T/C [17]: 93.6%
viability, T/C [18]: 70.8%
viability, T/C [19]: 90.6%
viability, T/C [20]: 86.6%
viability, T/C [21]: 95.1%
viability, T/C [22]: 85.7%
viability, T/C [23]: 77.9%
viability, T/C [24]: 59.2%
viability, T/C [25]: 96.5%
viability, T/C [26]: 89.7%
viability, T/C [27]: 92.1%
viability, T/C [28]: 96.4%
viability, T/C [29]: 75.1%
viability, T/C [30]: 59.8%
viability, T/C [31]: 100%
viability, T/C [32]: 87.3%
viability, T/C [33]: 79.8%
viability, T/C [34]: 83.6%
viability, T/C [35]: 81.5%
viability, T/C [36]: 54.3%

COc1cccc(OCCCN)c1-c1cc(Nc2cnc(C#N)cn2)n[nH]1 + Nc1ccc(C#CCN(C(=O)Cc2ncc(C(F)(F)F)cc2C(F)(F)F)c2ccc(F)cc2)nn1
pIC50 (second compound 0.0316 µM): 8.21
pIC50 (second compound 0.1 µM): 8.21
pIC50 (second compound 0.316 µM): 8.20
pIC50 (second compound 1 µM): 8.19
pIC50 (second compound 3.16 µM): 8.19
pIC50 (second compound 10 µM): 8.20
viability, T/C [37]: 86.5%
viability, T/C [38]: 24.3%
viability, T/C [1]: 3.65%
viability, T/C [2]: 2.95%
viability, T/C [3]: 2.97%
viability, T/C [4]: 1.66%
viability, T/C [39]: 80.2%
viability, T/C [40]: 27.6%
viability, T/C [7]: 3.76%
viability, T/C [8]: 2.65%
viability, T/C [9]: 2.25%
viability, T/C [10]: 1.2%
viability, T/C [41]: 95.2%
viability, T/C [42]: 20.7%
viability, T/C [13]: 3.16%
viability, T/C [14]: 2.72%
viability, T/C [15]: 3.55%
viability, T/C [16]: 1.23%
viability, T/C [43]: 98.5%
viability, T/C [44]: 20.5%
viability, T/C [19]: 3.32%
viability, T/C [20]: 2.87%
viability, T/C [21]: 4.02%
viability, T/C [22]: 1.67%
viability, T/C [45]: 102%
viability, T/C [46]: 16.9%
viability, T/C [25]: 3.53%
viability, T/C [26]: 1.93%
viability, T/C [27]: 2.04%
viability, T/C [28]: 1.29%
viability, T/C [47]: 93.2%
viability, T/C [48]: 22%
viability, T/C [31]: 2.53%
viability, T/C [32]: 2.36%
viability, T/C [33]: 2.24%
viability, T/C [34]: 1.49%

CC(C)n1c(=O)n(C)c2cnc3cc(F)c(-c4ccc(OCCCN5CCCCC5)nc4)cc3c21 + Nc1ccc(C#CCN(C(=O)Cc2ncc(C(F)(F)F)cc2C(F)(F)F)c2ccc(F)cc2)nn1
pIC50 (second compound 0.0316 µM): < 5.00
pIC50 (second compound 0.1 µM): < 5.00
pIC50 (second compound 0.316 µM): < 5.00
pIC50 (second compound 1 µM): < 5.00
pIC50 (second compound 3.16 µM): < 5.00
pIC50 (second compound 10 µM): < 5.00
viability, T/C [1]: 95.4%
viability, T/C [2]: 96.4%
viability, T/C [3]: 83.3%
viability, T/C [4]: 94.3%
viability, T/C [5]: 81.7%
viability, T/C [6]: 72.6%
viability, T/C [7]: 97.9%
viability, T/C [8]: 92.6%
viability, T/C [9]: 85.3%
viability, T/C [10]: 87.6%
viability, T/C [11]: 78.9%
viability, T/C [12]: 73.6%
viability, T/C [13]: 90.4%
viability, T/C [14]: 96.7%
viability, T/C [15]: 84.7%
viability, T/C [16]: 88.8%
viability, T/C [17]: 81.4%
viability, T/C [18]: 74.9%
viability, T/C [19]: 98.5%
viability, T/C [20]: 98.2%
viability, T/C [21]: 87%
viability, T/C [22]: 94.5%
viability, T/C [23]: 84.7%
viability, T/C [24]: 77.8%
viability, T/C [25]: 92.6%
viability, T/C [26]: 87.5%
viability, T/C [27]: 82.1%
viability, T/C [28]: 80.7%
viability, T/C [29]: 85.9%
viability, T/C [30]: 85.3%
viability, T/C [31]: 85.5%
viability, T/C [32]: 89.7%
viability, T/C [33]: 77%
viability, T/C [34]: 77.8%
viability, T/C [35]: 75.2%
viability, T/C [36]: 73.8%

Cn1ncnc1[C@H]1c2n[nH]c(=O)c3cc(F)cc(c23)N[C@@H]1c1ccc(F)cc1 + COC1C(OC(N)=O)C(O)C(Oc2ccc3c(O)c(NC(=O)c4ccc(O)c(CC=C(C)C)c4)c(=O)oc3c2C)OC1(C)C
pIC50 (second compound 0.0316 µM): < 7.00
pIC50 (second compound 0.1 µM): < 7.00
pIC50 (second compound 0.316 µM): < 7.00
pIC50 (second compound 1 µM): < 7.00
pIC50 (second compound 3.16 µM): < 7.00
pIC50 (second compound 10 µM): < 7.00
viability, T/C (second compound 0.0316 µM, first compound 0.000316 µM): 97.8%
viability, T/C (second compound 0.0316 µM, first compound 0.001 µM): 82.9%
viability, T/C [37]: 99.7%
viability, T/C [38]: 96.3%
viability, T/C [1]: 74%
viability, T/C [2]: 56.1%
viability, T/C (second compound 0.1 µM, first compound 0.000316 µM): 90.3%
viability, T/C (second compound 0.1 µM, first compound 0.001 µM): 93.4%
viability, T/C [39]: 110%
viability, T/C [40]: 87.2%
viability, T/C [7]: 69.9%
viability, T/C [8]: 56.4%
viability, T/C (second compound 0.316 µM, first compound 0.000316 µM): 91.4%
viability, T/C (second compound 0.316 µM, first compound 0.001 µM): 78.5%
viability, T/C [41]: 82.5%
viability, T/C [42]: 85.4%
viability, T/C [13]: 74%
viability, T/C [14]: 66.2%
viability, T/C (second compound 1 µM, first compound 0.000316 µM): 86.7%
viability, T/C (second compound 1 µM, first compound 0.001 µM): 83.2%
viability, T/C [43]: 85.2%
viability, T/C [44]: 92.3%
viability, T/C [19]: 67.6%
viability, T/C [20]: 60.9%
viability, T/C (second compound 3.16 µM, first compound 0.000316 µM): 86.6%
viability, T/C (second compound 3.16 µM, first compound 0.001 µM): 89.3%
viability, T/C [45]: 89.5%
viability, T/C [46]: 78.8%
viability, T/C [25]: 83.3%
viability, T/C [26]: 56.1%
viability, T/C (second compound 10 µM, first compound 0.000316 µM): 86%
viability, T/C (second compound 10 µM, first compound 0.001 µM): 87%
viability, T/C [47]: 89.3%
viability, T/C [48]: 76%
viability, T/C [31]: 74%
viability, T/C [32]: 58.1%
